As usually defined, the solubility is the concentration that dissolves in the medium under given conditions. A low value points to a poorly soluble substance.

This data set is described as follows: Water solubility of merocyanine (C). It is filed as physicochemical. To be noted: at 20° C. The source says: It is therefore necessary to be able to formulate UV-screening agents of merocyanine type in an aqueous medium. In particular, for cosmetic quality and performance benefits, it is advantageous that this aqueous medium be a single-phase medium.

Values after ≈ are worked out from the molar mass of the structure shown.

`CCOCCOC(=O)/C(C#N)=C1\C=C(NCCCOC)CCC1` [Compound (C), 2-ethoxyethyl (2Z)-cyano{3-[(3-methoxypropyl)amino]cyclohex-2-en-1-ylidene}ethanoate] had a solubility of about 500 µg/mL (≈ 1550 µM).
